Values after ≈ are worked out from the molar mass of the structure shown. Counter-ions that a name gives are not always drawn. Like-named read-outs stand apart in the source and are kept apart here.
How the values were obtained:
[1] = system: Fusarium roseum (FUS); experiment: In-vitro plant fungicide test; format: cell-based; details: Fusarium sambucinum; for inhibition of growth at 1.5 ppm: read-out: % Control at (ppm) indicated FUS, 1.5 ppm; for inhibition of growth at 3 ppm: read-out: % Control at (ppm) indicated FUS, 3 ppm; for inhibition of growth at 6 ppm: read-out: % Control at (ppm) indicated FUS, 6 ppm; for inhibition of growth at 12 ppm: read-out: % Control at (ppm) indicated FUS, 12 ppm; for inhibition of growth at 0.2 ppm: read-out: % Control at (ppm) indicated FUS, .2 ppm; for inhibition of growth at 0.4 ppm: read-out: % Control at (ppm) indicated FUS, .4 ppm; for inhibition of growth at 0.8 ppm: read-out: % Control at (ppm) indicated FUS, .8 ppm
[2] = system: Botrytis cinerea (BOC); experiment: In-vitro plant fungicide test; format: cell-based; details: Botrytis cinerea; for inhibition of growth at 0.2 ppm: .2 ppm; for inhibition of growth at 0.4 ppm: .4 ppm; for inhibition of growth at 0.8 ppm: .8 ppm
[3] = system: Pseudomonas fluorescens (PSFL); experiment: Minimum inhibitory concentration (MIC), broth two-fold serial dilution test; details: Pseudomonas fluorescens
Description: When the test is ready to be done, each vessel in the dilution series, except the first vessel, contains an equal volume of compound free broth. The first vessel contains twice the volume of broth with the starting concentration of test compound. One half of the broth from the first vessel is transferred to the second vessel. After being mixed, one half the resulting volume is removed from the second vessel and transferred to the third vessel. The entire cycle is repeated sufficiently to give a series of concentrations amounting to 500, 250, 125, 63, 31, 16, 8, and 4 ppm (or 100, 50, 25, 12.5, 6.2, 3.1, 1.6, and 0.8), respectively.
Each vessel is then inoculated with a cell suspension of the appropriate test organism. Bacteria are grown in broth, fungi on agar slants for a time and at a temperature appropriate to the species being tested, and algae are a mixture of green algae and blue-green bacteria grown in a nutrient media. At the end of the growth period, in the case of bacteria, the broth is vortexed to disperse the cells.
The vessels are then incubated at the appropriate temperature. After the incubation, the vessels are examined for growth/no growth.

[4] = system: COL; experiment: In-vitro plant fungicide test; format: cell-based; parameters: inhibition of growth: concentration or dose not given beside the values; details: Table IVb, read-out: % Control at (ppm) indicated COL; for inhibition of growth at 0.2 ppm: .2 ppm; for inhibition of growth at 0.4 ppm: .4 ppm; for inhibition of growth at 0.8 ppm: .8 ppm
[5] = system: Piricularia oryzae (PIR); experiment: microbe, parasite or virus in culture; format: cell-based; details: for inhibition of growth at 0.2 ppm: .2 ppm; for inhibition of growth at 0.4 ppm: .4 ppm; for inhibition of growth at 0.8 ppm: .8 ppm
[6] = system: Aureobasidium pullulans (APUL); experiment: Minimum inhibitory concentration (MIC), broth two-fold serial dilution test; format: cell-based; details: Aureobasidium pullulans
[7] = system: CER; experiment: In-vitro plant fungicide test; format: cell-based; details: Table IVb, read-out: % Control at (ppm) indicated CER; for inhibition of growth at 0.2 ppm: .2 ppm; for inhibition of growth at 0.4 ppm: .4 ppm; for inhibition of growth at 0.8 ppm: .8 ppm
[8] = system: Phytophthora capsici (PHY); experiment: In-vitro plant fungicide test; format: cell-based; details: Phytophthora capsici; for inhibition of growth at 0.2 ppm: .2 ppm; for inhibition of growth at 0.4 ppm: .4 ppm; for inhibition of growth at 0.8 ppm: .8 ppm
[9] = read-out: % Control at 25 ppm FUS, 25 ppm, Table IVa, *=Phytotoxic
[10] = read-out: % Control at (ppm) indicated FUS, 25 ppm, Table IVb
[11] = Table IVb, read-out: % Control at (ppm) indicated BOC
[12] = Table IVa, *=Phytotoxic, read-out: % Control at 25 ppm BOC
[13] = read-out: % Control at (ppm) indicated PIR
[14] = 25 ppm, read-out: % Control at (ppm) indicated PIR
[15] = read-out: % Control at 25 ppm PIR
[16] = Table IVb, read-out: % Control at (ppm) indicated PHY
[17] = Table IVa, read-out: % Control at 25 ppm PHY

SMILES: C[C@H](N)C(=O)N[C@@H](COCc1ccccc1)C(=O)OCC#CI [Compound 19, L-alanyl-O-benzyl-L-serine iodopropargyl ester trifluoroacetate]
- inhibition of growth at 25 ppm [1, 9]: 100%
- inhibition of growth at 1.5 ppm ([1]; Table IVb): 0%
- inhibition of growth at 3 ppm ([1]; Table IVb): 0%
- inhibition of growth at 6 ppm ([1]; Table IVb): 0%
- inhibition of growth at 12 ppm ([1]; Table IVb): 0%
- inhibition of growth at 25 ppm [1, 10]: 0%
- inhibition of growth at 0.2 ppm ([1]; Table IVb): 0%
- inhibition of growth at 0.4 ppm ([1]; Table IVb): 0%
- inhibition of growth at 0.8 ppm ([1]; Table IVb): 0%
- inhibition of growth at 1.5 ppm [2, 11]: 0%
- inhibition of growth at 6 ppm [2, 11]: 0%
- inhibition of growth at 25 ppm [2, 12]: 0%
- inhibition of growth at 25 ppm [2, 11]: 90%
- inhibition of growth at 0.2 ppm [2, 11]: 0%
- inhibition of growth at 0.4 ppm [2, 11]: 0%
- inhibition of growth at 0.8 ppm [2, 11]: 0%
- MIC ([3]; read-out: MIC (G-) PSFL, M9G (minimal salts media with glucose), Table IIIc, iodopropargyl esters of peptides): 50 µg/mL
- inhibition of growth at 1.5 ppm [4]: 0%
- inhibition of growth at 3 ppm [4]: 0%
- inhibition of growth at 6 ppm [4]: 0%
- inhibition of growth at 0.2 ppm [4]: 0%
- inhibition of growth at 0.4 ppm [4]: 0%
- inhibition of growth at 0.8 ppm [4]: 0%
- inhibition of growth [4]: 0%
- inhibition of growth at 1.5 ppm [5, 13]: 0%
- inhibition of growth at 6 ppm [5, 13]: 0%
- inhibition of growth at 25 ppm [5, 14]: 100%
- inhibition of growth at 0.2 ppm [5, 13]: 0%
- inhibition of growth at 0.4 ppm [5, 13]: 0%
- inhibition of growth at 0.8 ppm [5, 13]: 0%
- inhibition of growth at 25 ppm [5, 15]: 100%
- MIC ([6]; read-out: MIC (F) APUL, M9G (minimal salts media with glucose), Table IIIc, iodopropargyl esters of peptides): < 0.8 µg/mL
- inhibition of growth at 1.5 ppm [7]: 0%
- inhibition of growth at 6 ppm [7]: 50%
- inhibition of growth at 25 ppm [7]: 100%
- inhibition of growth at 0.2 ppm [7]: 0%
- inhibition of growth at 0.4 ppm [7]: 0%
- inhibition of growth at 0.8 ppm [7]: 0%
- inhibition of growth at 1.5 ppm [8, 16]: 0%
- inhibition of growth at 6 ppm [8, 16]: 0%
- inhibition of growth at 25 ppm [8, 17]: 100%
- inhibition of growth at 25 ppm [8, 16]: 100%
- inhibition of growth at 0.2 ppm [8, 16]: 0%
- inhibition of growth at 0.4 ppm [8, 16]: 0%
- inhibition of growth at 0.8 ppm [8, 16]: 0%

SMILES: CC(=O)NCC(=O)OCC#CI [Compound 28, N-acetylglycine iodopropargyl ester]
- inhibition of growth at 25 ppm [1, 9]: 100%
- inhibition of growth at 1.5 ppm ([1]; Table IVb): 0%
- inhibition of growth at 3 ppm ([1]; Table IVb): 0%
- inhibition of growth at 6 ppm ([1]; Table IVb): 0%
- inhibition of growth at 12 ppm ([1]; Table IVb): 100%
- inhibition of growth at 25 ppm [1, 10]: 100%
- inhibition of growth at 0.2 ppm ([1]; Table IVb): 0%
- inhibition of growth at 0.4 ppm ([1]; Table IVb): 0%
- inhibition of growth at 0.8 ppm ([1]; Table IVb): 0%
- inhibition of growth at 1.5 ppm [2, 11]: 0%
- inhibition of growth at 6 ppm [2, 11]: 0%
- inhibition of growth at 25 ppm [2, 12]: 100%
- inhibition of growth at 25 ppm [2, 11]: 100%
- inhibition of growth at 0.2 ppm [2, 11]: 0%
- inhibition of growth at 0.4 ppm [2, 11]: 0%
- inhibition of growth at 0.8 ppm [2, 11]: 0%
- MIC ([3]; IIIB, read-out: MIC (G-) PSFL, trypticase soy broth (complex media), Table IIIb): 63 µg/mL (≈ 224 µM)
- inhibition of growth at 1.5 ppm [4]: 0%
- inhibition of growth at 3 ppm [4]: 0%
- inhibition of growth at 6 ppm [4]: 0%
- inhibition of growth at 12 ppm ([4]; 12 ppm): 0%
- inhibition of growth at 25 ppm ([4]; 25 ppm): 50%
- inhibition of growth at 0.2 ppm [4]: 0%
- inhibition of growth at 0.4 ppm [4]: 0%
- inhibition of growth at 0.8 ppm [4]: 0%
- inhibition of growth at 1.5 ppm [5, 13]: 0%
- inhibition of growth at 6 ppm [5, 13]: 100%
- inhibition of growth at 25 ppm [5, 14]: 100%
- inhibition of growth at 0.2 ppm [5, 13]: 0%
- inhibition of growth at 0.4 ppm [5, 13]: 0%
- inhibition of growth at 0.8 ppm [5, 13]: 0%
- inhibition of growth at 25 ppm [5, 15]: 100%
- MIC ([6]; IIIB, trypticase soy broth (complex media), Table IIIb, read-out: MIC (F) APUL): 4 µg/mL (≈ 14.2 µM)
- inhibition of growth at 1.5 ppm [7]: 0%
- inhibition of growth at 6 ppm [7]: 100%
- inhibition of growth at 25 ppm [7]: 100%
- inhibition of growth at 0.2 ppm [7]: 0%
- inhibition of growth at 0.4 ppm [7]: 0%
- inhibition of growth at 0.8 ppm [7]: 0%
- inhibition of growth at 1.5 ppm [8, 16]: 0%
- inhibition of growth at 6 ppm [8, 16]: 100%
- inhibition of growth at 25 ppm [8, 17]: 100%
- inhibition of growth at 25 ppm [8, 16]: 100%
- inhibition of growth at 0.2 ppm [8, 16]: 0%
- inhibition of growth at 0.4 ppm [8, 16]: 0%
- inhibition of growth at 0.8 ppm [8, 16]: 0%

Reference: patent EP0414533A1, “Use of iodopropargyl esters of alpha-amino acid derivatives as antimicrobial agents” (ROHM AND HAAS COMPANY, priority 1989, dated 1991)
